Results on one compound are retold here after patent publication US9580451B2, “Sulfonic esters of metal oxides and methods of their use” (California Institute of Technology, priority 2013, dated 2017).

The nature of this data set: Relative fluorescence quantum yield measurement. It counts as physicochemical. The conditions noted are these: degassed toluene, tetraphenylporphyrin as standard. The protocol: The Φem measurements were performed using degassed toluene solutions of 1,1-Al, 1-Ga, and tetraphenylporphyrin (as a standard). Samples were excited at λex=355 nm and the emission was observed from λem=500-800 nm. The standard tetraphenylporphyrin was excited at λex=514 nm and the emission was observed from λem=500-800 nm. Φem for tetraphenylporphyrin is 0.11.3 All relative fluorescence quantum yields were calculated based on the corresponding fluorescence spectra of the samples and the standard according to the equation: […]
where Φem(s) and Φem(x) are the relative fluorescence quantum yield of the standard and sample, respectively; As and Ax are the absorbance at the excitation wavelength for the standard and sample, respectively; Fs and Fx are the area under the corrected emission curve for the standard and sample, respectively; and ηs and ηx are the refractive index of the solvent used for the standard and sample, respectively.

In the case of `O=S(=O)(Cl)C1=Cc2nc1c(-c1c(F)c(F)c(F)c(F)c1F)c1ccc([nH]1)c(-c1c(F)c(F)c(F)c(F)c1F)c1ccc([nH]1)c(-c1c(F)c(F)c(F)c(F)c1F)c1cc(S(=O)(=O)Cl)c2[nH]1` [compound 1, 2,17-bischlorosulfonato-5,10,15-tris(pentafluorophenyl)corrole], the “φem, relative emission quantum yield” value was 0.094.
